Publication PMC5823789 (Journal of medicinal chemistry, 2018)
“Also recorded” adds a separate entry of the source.

Legend:
[1] = target: T1, hNNMT (Homo sapiens, UniProt P40261); experiment: SAHH-coupled fluorescent assay of NNMT methyltransferase activity; format: biochemical
T1 sequence (P40261 1-264): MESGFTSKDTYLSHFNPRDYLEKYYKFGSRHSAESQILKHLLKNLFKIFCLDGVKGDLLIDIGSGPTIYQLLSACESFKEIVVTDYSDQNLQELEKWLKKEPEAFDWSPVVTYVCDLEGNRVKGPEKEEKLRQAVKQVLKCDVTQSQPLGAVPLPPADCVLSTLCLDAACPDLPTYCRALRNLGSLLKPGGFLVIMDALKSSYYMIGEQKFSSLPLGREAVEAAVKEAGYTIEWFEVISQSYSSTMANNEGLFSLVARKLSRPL

[2] = target: T1, hNNMT; experiment: Isothermal titration calorimetry; format: binding
[3] = target: DOT1L (Homo sapiens, UniProt Q8TEK3); experiment: Selectivity assay, filter-based 3H-SAM methyltransferase assay; format: biochemical
[4] = target: T2, PRMT7 (Homo sapiens, UniProt Q9NVM4); experiment: Selectivity assay, scintillation proximity assay; format: biochemical
T2 sequence (Q9NVM4 1-692): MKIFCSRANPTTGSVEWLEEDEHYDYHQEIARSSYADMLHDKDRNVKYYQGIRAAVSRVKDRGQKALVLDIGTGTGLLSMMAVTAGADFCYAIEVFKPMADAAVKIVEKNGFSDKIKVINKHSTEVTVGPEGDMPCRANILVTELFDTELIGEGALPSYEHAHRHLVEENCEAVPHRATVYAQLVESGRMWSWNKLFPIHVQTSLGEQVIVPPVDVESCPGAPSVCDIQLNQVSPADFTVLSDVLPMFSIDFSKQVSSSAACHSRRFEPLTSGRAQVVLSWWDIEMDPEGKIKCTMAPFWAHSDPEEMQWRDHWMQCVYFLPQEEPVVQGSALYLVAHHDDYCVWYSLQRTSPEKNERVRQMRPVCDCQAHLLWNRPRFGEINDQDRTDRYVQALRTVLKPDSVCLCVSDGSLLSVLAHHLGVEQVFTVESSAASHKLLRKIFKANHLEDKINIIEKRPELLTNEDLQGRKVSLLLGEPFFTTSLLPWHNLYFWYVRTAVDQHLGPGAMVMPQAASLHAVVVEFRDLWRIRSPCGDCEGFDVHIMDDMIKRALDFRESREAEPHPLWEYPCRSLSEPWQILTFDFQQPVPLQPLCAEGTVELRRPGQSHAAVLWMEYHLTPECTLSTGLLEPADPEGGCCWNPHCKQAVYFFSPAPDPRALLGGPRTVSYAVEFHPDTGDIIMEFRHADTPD

[5] = target: T3, BCDIN3D (Homo sapiens, UniProt Q7Z5W3); experiment: Selectivity assay, scintillation proximity assay; format: biochemical
T3 sequence (Q7Z5W3 1-292): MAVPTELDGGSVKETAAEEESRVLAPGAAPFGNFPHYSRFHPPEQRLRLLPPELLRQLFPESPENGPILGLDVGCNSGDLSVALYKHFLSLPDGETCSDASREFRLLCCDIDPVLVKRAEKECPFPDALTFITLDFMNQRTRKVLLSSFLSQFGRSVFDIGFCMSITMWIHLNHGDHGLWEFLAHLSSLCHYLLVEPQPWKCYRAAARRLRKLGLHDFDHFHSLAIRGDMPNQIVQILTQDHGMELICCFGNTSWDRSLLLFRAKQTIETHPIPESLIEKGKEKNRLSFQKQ

[6] = target: SMYD2 (Homo sapiens, UniProt Q9NRG4); experiment: Selectivity assay, scintillation proximity assay; format: biochemical
[7] = substrate: NC(=O)c1cccnc1; experiment: purified protein, by the assay type; details: other: SAHH-coupled assay; kcat 4.1 ± 0.2 min^-1; pH 7.5

Sequence of DOT1L (Q8TEK3 whole entry, species assumed): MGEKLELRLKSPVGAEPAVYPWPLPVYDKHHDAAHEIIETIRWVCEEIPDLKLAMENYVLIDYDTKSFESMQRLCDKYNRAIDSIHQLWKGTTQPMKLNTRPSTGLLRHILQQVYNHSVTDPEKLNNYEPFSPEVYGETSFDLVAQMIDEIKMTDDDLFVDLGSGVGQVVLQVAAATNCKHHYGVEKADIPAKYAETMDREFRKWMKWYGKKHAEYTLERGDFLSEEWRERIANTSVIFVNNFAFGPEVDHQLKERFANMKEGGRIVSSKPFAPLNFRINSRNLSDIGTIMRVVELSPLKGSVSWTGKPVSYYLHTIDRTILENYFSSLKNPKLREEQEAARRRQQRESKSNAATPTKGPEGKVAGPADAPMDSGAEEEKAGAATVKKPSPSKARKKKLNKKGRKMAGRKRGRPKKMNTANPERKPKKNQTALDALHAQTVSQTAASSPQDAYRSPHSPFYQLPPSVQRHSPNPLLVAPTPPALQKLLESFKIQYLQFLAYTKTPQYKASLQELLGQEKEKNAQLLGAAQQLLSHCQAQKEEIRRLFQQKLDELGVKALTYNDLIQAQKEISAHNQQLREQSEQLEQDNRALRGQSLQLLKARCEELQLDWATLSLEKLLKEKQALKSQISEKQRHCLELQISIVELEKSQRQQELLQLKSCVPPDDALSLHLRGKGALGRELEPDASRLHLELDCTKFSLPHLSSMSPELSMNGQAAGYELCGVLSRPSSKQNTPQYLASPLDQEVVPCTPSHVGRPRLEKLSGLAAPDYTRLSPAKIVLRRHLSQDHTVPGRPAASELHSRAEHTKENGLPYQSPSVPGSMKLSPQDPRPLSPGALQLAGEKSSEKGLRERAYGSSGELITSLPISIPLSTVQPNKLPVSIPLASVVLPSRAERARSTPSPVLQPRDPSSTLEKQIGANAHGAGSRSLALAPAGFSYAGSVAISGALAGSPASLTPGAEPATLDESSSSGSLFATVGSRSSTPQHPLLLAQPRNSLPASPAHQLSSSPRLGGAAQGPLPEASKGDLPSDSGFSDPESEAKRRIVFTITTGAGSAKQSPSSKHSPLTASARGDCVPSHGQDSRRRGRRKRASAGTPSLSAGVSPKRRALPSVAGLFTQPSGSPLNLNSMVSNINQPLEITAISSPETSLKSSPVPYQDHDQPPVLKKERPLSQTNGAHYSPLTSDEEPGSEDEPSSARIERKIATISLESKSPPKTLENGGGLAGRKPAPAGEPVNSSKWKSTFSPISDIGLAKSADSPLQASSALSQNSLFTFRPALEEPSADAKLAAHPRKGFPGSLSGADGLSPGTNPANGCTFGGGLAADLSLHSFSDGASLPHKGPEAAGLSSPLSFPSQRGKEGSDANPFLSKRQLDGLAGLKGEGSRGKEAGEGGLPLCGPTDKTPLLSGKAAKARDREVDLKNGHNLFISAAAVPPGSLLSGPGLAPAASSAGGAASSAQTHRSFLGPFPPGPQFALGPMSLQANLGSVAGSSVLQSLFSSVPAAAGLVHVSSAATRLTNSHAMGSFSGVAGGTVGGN
Sequence of SMYD2 (Q9NRG4 whole entry, species assumed): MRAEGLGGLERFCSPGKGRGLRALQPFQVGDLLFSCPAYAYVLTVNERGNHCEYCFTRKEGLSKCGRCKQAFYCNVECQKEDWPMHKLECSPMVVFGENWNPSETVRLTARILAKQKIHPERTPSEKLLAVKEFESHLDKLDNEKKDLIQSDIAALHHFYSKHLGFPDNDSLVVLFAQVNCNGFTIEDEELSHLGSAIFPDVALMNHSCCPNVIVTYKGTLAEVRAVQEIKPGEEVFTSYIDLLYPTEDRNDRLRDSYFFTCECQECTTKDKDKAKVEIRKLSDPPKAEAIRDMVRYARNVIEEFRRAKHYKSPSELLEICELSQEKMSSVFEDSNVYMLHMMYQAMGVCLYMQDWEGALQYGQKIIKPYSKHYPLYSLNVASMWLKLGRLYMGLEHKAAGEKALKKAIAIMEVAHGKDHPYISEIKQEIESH

C[S+](CC[C@H](N)C(=O)O)C[C@H]1O[C@@H](n2cnc3c(N)ncnc32)[C@H](O)[C@@H]1O (stereo partly drawn) [SAM, S-5′-adenosyl-L-methionine, reference compound]
Km ([1]; read-out: Km for NNMT): 24 ± 6.8 µM
Kd ([2]; read-out: Kd for binding to hNNMT (ITC), 25 °C, 50 mM Tris pH 8.0, 100 mM NaCl): 56.4 ± 9.5 µM

NC(=O)c1cccc(CCN(CCC[C@H](N)C(=O)O)C[C@H]2O[C@@H](n3cnc4c(N)ncnc43)[C@H](O)[C@@H]2O)c1 [compound 6, (S)-2-Amino-5-((((2R,3S,4R,5R)-5-(6-amino-9H-purin-9-yl)-3,4-di-hydroxytetrahydrofuran-2-yl)methyl)(3-carbamoylphenethyl)-amino)pentanoic acid]
Mechanism of inhibition with respect to cofactor SAM ([1]; 200 μM nicotinamide, SAM varied 12.5 to 200 μM, Lineweaver-Burk): SAM competitive; also recorded: competitive inhibition
Mechanism of inhibition with respect to substrate nicotinamide ([1]; 250 μM SAM, nicotinamide varied 12.5 to 200 μM, Lineweaver-Burk): noncompetitive inhibition
Hill slope, DOT1L [3]: 1.1
Hill slope, PRMT7 [4]: 1.1
Hill slope, BCDIN3D [5]: 1.3
Hill slope, SMYD2 [6]: 0.6

NC(=O)c1cccnc1 [nicotinamide]
Binding to hNNMT in ITC in the absence of the cofactor ([2]; no cofactor): not observed

B1: hNNMT (Homo sapiens) (protein)
chain: T1 sequence (P40261 1-264)
Km [7]: 20 ± 3 µM
